Columns and labels:
Plasmopara viticola = experiment: Plasmopara test (grapevine)/protective; assay type: in vivo; conditions: young grapevine plants, sprayed, active ingredient concentration 10 ppm, evaluation 6 days after inoculation; 100% = no infection
Experimental: Plasmopara Test (Grapevine)/Protective
• Solvent: 24.5 parts by weight of acetone • 24.5 parts by weight of dimethylacetamide • Emulsifier: 1 part by weight of alkylaryl polyglycol ether
[To produce an appropriate active ingredient formulation, 1 part by weight of active ingredient is mixed with the specified amounts of solvent and emulsifier, and the concentrate is diluted with water to the desired concentration.
To test for protective efficacy, young plants are sprayed with the active ingredient formulation at the stated application rate. After the spray coating has dried on, the plants are inoculated with an aqueous spore suspension of Plasmopara viticola and then remain in an incubation cabin at approx. 20° C. and 100% relative air humidity for 1 day. Subsequently, the plants are placed in a greenhouse at approx. 21° C. and approx. 90% air humidity for 4 days. The plants are then moistened and placed in an incubation cabin for 1 day.
Evaluation follows 6 days after the inoculation. 0% means an efficacy which corresponds to that of the control, whereas an efficacy of 100% means that no infection is observed.
In this test, the following inventive compounds show, at an active ingredient concentration of 10 ppm, an efficacy of 70% or more: […]

Phytophthora infestans = assay type: in vivo; conditions: young tomato plants, sprayed, active ingredient concentration 100 ppm, inoculated 1 day after treatment, evaluation 7 days after inoculation; 100% = no infection

Compound: CCON=C(C)c1cccc(C2CC(c3csc(C4CCN(C(=O)Cn5nc(C(F)F)cc5C(F)F)CC4)n3)=NO2)c1 (mixture of isomers) [Example I-5]
- Eff. % (Plasmopara viticola): 87%
- Eff. % (Phytophthora infestans): 100%

Compound: CC(C)ON=Cc1cccc(C2CC(c3csc(C4CCN(C(=O)Cn5nc(C(F)F)cc5C(F)F)CC4)n3)=NO2)c1 (mixture of isomers) [Example I-6]
- Eff. % (Phytophthora infestans): 100%

Compound: Cc1cc(C(F)(F)F)nn1CC(=O)N1CCC(c2nc(C3=NOC(c4cccc(C=NOC(C)C)c4)C3)cs2)CC1 (mixture of isomers) [Example I-8]
- Eff. % (Phytophthora infestans): 100%

Compound: CC(=NOC(C)C)c1cccc(C2CC(c3csc(C4CCN(C(=O)Cn5nc(C(F)(F)F)cc5C)CC4)n3)=NO2)c1 (mixture of isomers) [Example I-9]
- Eff. % (Phytophthora infestans): 100%

Compound: Cc1cc(C(F)(F)F)nn1CC(=O)N1CCC(c2nc(C3=NOC(c4cccc(C=NO)c4)C3)cs2)CC1 (mixture of isomers) [Example I-10]
- Eff. % (Plasmopara viticola): 92%
- Eff. % (Phytophthora infestans): 100%

Compound: CCON=Cc1cccc(C2CC(c3csc(C4CCN(C(=O)Nc5cc(Cl)ccc5C)CC4)n3)=NO2)c1 (mixture of isomers) [Example I-12]
- Eff. % (Phytophthora infestans): 95%

Compound: Cc1ccc(Cl)cc1NC(=O)N1CCC(c2nc(C3=NOC(c4cccc(C=NO)c4)C3)cs2)CC1 (mixture of isomers) [Example I-14]
- Eff. % (Plasmopara viticola): 100%
- Eff. % (Phytophthora infestans): 100%

Compound: CON=Cc1cccc(C2CC(c3csc(C4CCN(C(=O)Cn5nc(C(F)(F)F)cc5C)CC4)n3)=NO2)c1 (mixture of isomers) [Example I-15]
- Eff. % (Plasmopara viticola): 81%
- Eff. % (Phytophthora infestans): 100%

Compound: CON=Cc1cccc(C2CC(c3csc(C4CCN(C(=O)Cn5nc(C(F)F)cc5C(F)F)CC4)n3)=NO2)c1 (mixture of isomers) [Example I-16]
- Eff. % (Plasmopara viticola): 94%

Compound: CC(=NO)c1cccc(C2CC(c3csc(C4CCN(C(=O)Cn5nc(C(F)F)cc5C(F)F)CC4)n3)=NO2)c1 (mixture of isomers) [Example I-18]
- Eff. % (Plasmopara viticola): 100%
- Eff. % (Phytophthora infestans): 100%

Compound: CON=Cc1cccc(C2CC(c3csc(C4CCN(C(=O)Nc5cc(Cl)ccc5C)CC4)n3)=NO2)c1 (mixture of isomers) [Example I-19]
- Eff. % (Plasmopara viticola): 100%
- Eff. % (Phytophthora infestans): 100%

Compound: CC(=NOC(C)C)c1cccc(C2CC(c3csc(C4CCN(C(=O)Cn5nc(C(F)F)cc5C(F)F)CC4)n3)=NO2)c1 (mixture of isomers) [Example I-20]
- Eff. % (Phytophthora infestans): 100%

Compound: CON=C(C)c1cccc(C2CC(c3csc(C4CCN(C(=O)Cn5nc(C(F)F)cc5C(F)F)CC4)n3)=NO2)c1 (mixture of isomers) [Example I-21]
- Eff. % (Plasmopara viticola): 100%
- Eff. % (Phytophthora infestans): 100%

Compound: CCON=Cc1cccc(C2CC(c3csc(C4CCN(C(=O)Cn5nc(C(F)F)cc5C(F)F)CC4)n3)=NO2)c1 (mixture of isomers) [Example I-24]
- Eff. % (Phytophthora infestans): 100%

Compound: CC(=NOC(C)C)c1ccccc1C1CC(c2csc(C3CCN(C(=O)Cn4nc(C(F)F)cc4C(F)F)CC3)n2)=NO1 (mixture of isomers) [Example I-28]
- Eff. % (Phytophthora infestans): 100%

Compound: CC(=NOC(C)C)c1ccccc1C1CC(c2csc(C3CCN(C(=O)Cn4nc(C(F)(F)F)cc4C)CC3)n2)=NO1 (mixture of isomers) [Example I-30]
- Eff. % (Phytophthora infestans): 100%

Compound: CCON=Cc1ccccc1C1CC(c2csc(C3CCN(C(=O)Nc4cc(Cl)ccc4C)CC3)n2)=NO1 (mixture of isomers) [Example I-33]
- Eff. % (Phytophthora infestans): 100%

Compound: Cc1ccc(Cl)cc1NC(=O)N1CCC(c2nc(C3=NOC(c4ccccc4C=NOC(C)C)C3)cs2)CC1 (mixture of isomers) [Example I-37]
- Eff. % (Phytophthora infestans): 100%

Compound: Cc1cc(C(F)(F)F)nn1CC(=O)N1CCC(c2nc(C3=NOC(c4ccccc4C=NOC(C)C)C3)cs2)CC1 (mixture of isomers) [Example I-39]
- Eff. % (Phytophthora infestans): 100%

Compound: CC(C)ON=Cc1ccccc1C1CC(c2csc(C3CCN(C(=O)Cn4nc(C(F)F)cc4C(F)F)CC3)n2)=NO1 (mixture of isomers) [Example I-42]
- Eff. % (Phytophthora infestans): 100%

Compound: CCON=Cc1cccc(C2CC(c3csc(C4CCN(C(=O)Cn5nc(C(F)(F)F)cc5C)CC4)n3)=NO2)c1 (stereo not drawn) [Example I-11]
- Eff. % (Phytophthora infestans): 100%

Compound: Cc1ccc(Cl)cc1NC(=O)N1CCC(c2nc(C3=NOC(c4cccc(C=NOC(C)C)c4)C3)cs2)CC1 (stereo not drawn) [Example I-13]
- Eff. % (Phytophthora infestans): 100%

Compound: CC(=O)Nc1ccc(C2CC(c3csc(C4CCN(C(=O)Cn5nc(C(F)F)cc5C(F)F)CC4)n3)=NO2)cc1 (stereo not drawn) [Example I-25]
- Eff. % (Plasmopara viticola): 97%

Compound: CC1(c2ccccc2OS(C)(=O)=O)CC(c2csc(C3CCN(C(=O)Cn4nc(C(F)F)cc4C(F)F)CC3)n2)=NO1 (stereo not drawn) [Example I-43]
- Eff. % (Phytophthora infestans): 94%

Compound: Cc1cc(C(F)F)nn1CC(=O)N1CCC(c2nc(C3=NOC(C)(c4ccccc4OS(C)(=O)=O)C3)cs2)CC1 (stereo not drawn) [Example I-44]
- Eff. % (Phytophthora infestans): 94%

Compound: COCCS(=O)(=O)Cc1ccccc1C1CC(c2csc(C3CCN(C(=O)Cn4nc(C(F)(F)F)cc4C)CC3)n2)=NO1 (stereo not drawn) [Example I-45]
- Eff. % (Phytophthora infestans): 94%

Compound: Cc1ccc(S(=O)(=O)Oc2ccccc2C2(C)CC(c3csc(C4CCN(C(=O)Cn5nc(C(F)F)cc5C(F)F)CC4)n3)=NO2)cc1 (stereo not drawn) [Example I-48]
- Eff. % (Phytophthora infestans): 94%

Compound: Cc1ccc(S(=O)(=O)Oc2ccccc2C2(C)CC(c3csc(C4CCN(C(=O)Cn5nc(C(F)F)cc5C)CC4)n3)=NO2)cc1 (stereo not drawn) [Example I-49]
- Eff. % (Phytophthora infestans): 94%

Compound: CS(=O)(=O)Oc1ccc(F)c(C2CC(c3csc(C4CCN(C(=O)Cn5nc(C(F)F)cc5C(F)F)CC4)n3)=NO2)c1F (stereo not drawn) [Example I-50]
- Eff. % (Phytophthora infestans): 94%

Compound: Cc1cc(C(F)F)nn1CC(=O)N1CCC(c2nc(C3=NOC(c4ccccc4OS(C)(=O)=O)C3)cs2)CC1 (stereo not drawn) [Example I-51]
- Eff. % (Phytophthora infestans): 97%

Compound: Cc1ccc(C)c(NC(=O)N2CCC(c3nc(C4=NOC(c5c(Cl)cccc5OS(C)(=O)=O)C4)cs3)CC2)c1 (stereo not drawn) [Example I-52]
- Eff. % (Phytophthora infestans): 94%

Compound: COCC[S+]([O-])Cc1ccccc1C1CC(c2csc(C3CCN(C(=O)Cn4nc(C(F)F)cc4C(F)F)CC3)n2)=NO1 (stereo not drawn) [Example I-56]
- Eff. % (Phytophthora infestans): 94%

Compound: CS(=O)(=O)Oc1cc(Cl)ccc1C1CC(c2csc(C3CCN(C(=O)Cn4nc(C(F)F)cc4C(F)F)CC3)n2)=NO1 (stereo not drawn) [Example I-70]
- Eff. % (Phytophthora infestans): 97%

Compound: N#CCOc1cc(Cl)ccc1C1CC(c2csc(C3CCN(C(=O)Cn4nc(C(F)F)cc4C(F)F)CC3)n2)=NO1 (stereo not drawn) [Example I-71]
- Eff. % (Phytophthora infestans): 100%

Compound: N#CCOc1cccc(Cl)c1C1CC(c2csc(C3CCN(C(=O)Cn4nc(C(F)F)cc4C(F)F)CC3)n2)=NO1 (stereo not drawn) [Example I-75]
- Eff. % (Plasmopara viticola): 100%

Compound: C=CCOCc1ccccc1C1CC(c2csc(C3CCN(C(=O)Cn4nc(C(F)(F)F)cc4C)CC3)n2)=NO1 (stereo not drawn) [Example I-93]
- Eff. % (Phytophthora infestans): 95%

Compound: C=CCOCc1ccccc1C1CC(c2csc(C3CCN(C(=O)Cn4nc(C(F)F)cc4C(F)F)CC3)n2)=NO1 (stereo not drawn) [Example I-94]
- Eff. % (Phytophthora infestans): 100%

Compound: Cc1cc(C(F)(F)F)nn1CC(=O)N1CCC(c2nc(C3=NOC(c4cccc(OCC#N)c4)C3)cs2)CC1 (stereo not drawn) [Example I-95]
- Eff. % (Phytophthora infestans): 100%

Compound: Cc1cc(C(F)(F)F)nn1CC(=O)N1CCC(c2nc(C3=NOC(c4ccc(OS(C)(=O)=O)cc4)C3)cs2)CC1 (stereo not drawn) [Example I-96]
- Eff. % (Phytophthora infestans): 95%

Compound: CCS(=O)(=O)Oc1ccc(C2CC(c3csc(C4CCN(C(=O)Cn5nc(C(F)(F)F)cc5C)CC4)n3)=NO2)cc1 (stereo not drawn) [Example I-97]
- Eff. % (Phytophthora infestans): 95%

Compound: Cc1cc(C(F)(F)F)nn1CC(=O)N1CCC(c2nc(C3=NOC(c4ccc(OS(=O)(=O)C5CC5)cc4)C3)cs2)CC1 (stereo not drawn) [Example I-98]
- Eff. % (Phytophthora infestans): 95%

Compound: CCS(=O)(=O)Oc1cccc(C2CC(c3csc(C4CCN(C(=O)Cn5nc(C(F)(F)F)cc5C)CC4)n3)=NO2)c1 (stereo not drawn) [Example I-99]
- Eff. % (Phytophthora infestans): 100%

Compound: COCCSCc1ccccc1C1CC(c2csc(C3CCN(C(=O)Cn4nc(C(F)F)cc4C(F)F)CC3)n2)=NO1 (stereo not drawn) [Example I-100]
- Eff. % (Phytophthora infestans): 100%

Compound: Cc1cc(C(F)(F)F)nn1CC(=O)N1CCC(c2nc(C3=NOC(c4cccc(OS(=O)(=O)C5CC5)c4)C3)cs2)CC1 (stereo not drawn) [Example I-101]
- Eff. % (Phytophthora infestans): 100%

Compound: C=CC(=O)Oc1ccccc1C1CC(c2csc(C3CCN(C(=O)Cn4nc(C(F)(F)F)cc4C)CC3)n2)=NO1 (stereo not drawn) [Example I-104]
- Eff. % (Phytophthora infestans): 97%

Compound: O=C(Cn1nc(C(F)F)cc1C(F)F)N1CCC(c2nc(C3=NOC(c4ccccc4OC(=O)C4(Cl)CC4)C3)cs2)CC1 (stereo not drawn) [Example I-107]
- Eff. % (Phytophthora infestans): 100%

Compound: Cc1cc(C(F)(F)F)nn1CC(=O)N1CCC(c2nc(C3=NOC(c4ccccc4NC=O)C3)cs2)CC1 (stereo not drawn) [Example I-109]
- Eff. % (Phytophthora infestans): 100%

Compound: N#CCOc1cccc(C2CC(c3csc(C4CCN(C(=O)Cn5nc(C(F)F)cc5C(F)F)CC4)n3)=NO2)c1 (stereo not drawn) [Example I-110]
- Eff. % (Phytophthora infestans): 100%

Compound: Cc1cc(C(F)(F)F)nn1CC(=O)N1CCC(c2nc(C3=NOC(c4cccc(F)c4OCC#N)C3)cs2)CC1 (stereo not drawn) [Example I-111]
- Eff. % (Phytophthora infestans): 98%

Compound: O=C(O)c1ccccc1C1CC(c2csc(C3CCN(C(=O)Cn4nc(C(F)F)cc4C(F)F)CC3)n2)=NO1 (stereo not drawn) [Example I-134]
- Eff. % (Phytophthora infestans): 93%

Compound: CCNC(=O)Oc1ccccc1C1CC(c2csc(C3CCN(C(=O)Cn4nc(C(F)F)cc4C(F)F)CC3)n2)=NO1 (stereo not drawn) [Example I-136]
- Eff. % (Phytophthora infestans): 93%

Compound: O=C(Cn1nc(C(F)F)cc1C(F)F)N1CCC(c2nc(C3=NOC(c4cccc(OCC#Cc5cccc6ccccc56)c4)C3)cs2)CC1 (stereo not drawn) [Example I-137]
- Eff. % (Phytophthora infestans): 100%

Compound: C=CCOCc1ccccc1C1CC(c2csc(C3CCN(C(=O)Cn4nc(C(F)F)cc4C(F)F)CC3)n2)=NO1 (stereo not drawn) [Example I-139]
- Eff. % (Phytophthora infestans): 80%
